{
  "source": "patent US9657260B2",
  "about": "“Method and system for continous monitoring of toxicity” (Yissum Research Development Company of The Hebrew …, priority 2014, dated 2017)",
  "key": {"[1]": {"tested_on": "HepG2/C3A cells", "assay": "in vitro", "settings": "for time to onset of mitochondrial (respiratory) damage: human; for % of normal respiration: within 60 minutes (fast phase)", "description": "(§1) Reactor Seeding. The following steps of cell seeding and reactor assembly were carried out in a sterile hood. Prior to seeding cells into the reactor, the PDMS-based well unit and all tubings were cleaned and sterilized with 70% EtOH, washed with ddH2O, dried and subsequently exposed to UV light for at least 30 min. The cells were detached from the tissue culture substrate with trypsin-EDTA (Biochrom, Berlin, Germany), counted, centrifuged at 280 rpm for 5 min at 4° C. and resuspended with 100 μl of collagen type I solution to a final density of 4×10^6 cells per device. During resuspension of the cells, 300 μg to 500 μg oxygen sensing beads (CPOx-50-RuP, Colibri Photonics, Potsdam, Germany) were added, resulting in at least ten to 20 beads per microwell after completion of the cell seeding protocol. The collagen type I solution was made of 560 μl ddH2O, 100 μl PBS (10×), 6.25 μl of 1 N NaOH and 333 μl of collagen type I (3.6 mg ml^−1, BD Biosciences, San Jose, Calif., USA). The PDMS microwells were primed for 5 min on ice with this solution in order to eliminate air bubbles from the wells. Subsequently, 100 μl of collagen type I suspension containing cells and oxygen-sensing beads was placed on top of the PDMS-based well unit, thus covering all nine microwells. The unit was kept in a sterile 50.8 mm petri dish placed on ice for 5 min in order to allow the cells to sediment into the wells. The low temperature prevented premature collagen polymerization and the induction of cellular stress response pathways. Afterwards, excess cell and microbead suspension was gently but thoroughly wiped off the PDMS-based well unit using a sterile glass coverslip (FIG. 2C) leading to a concentration of 100,000 cells/well. The inoculated well unit was then incubated for 5 min at 37° C. in a humidified cell incubator (see above) at 5% CO2 in order to polymerize the collagen and by this immobilize the cells and microbeads in the wells. Following polymerization, the well unit, loaded with the cells, was immersed in 5 ml of MEM medium (composition see above) for 20 min at 37° C. in a cell incubator (see above). Subsequently, the PDMS-based well unit was transferred into the bioreactor. After sealing, the bioreactor was placed into the climate control chamber (37° C., ACUO2, Evotec, Germany) of an inverted fluorescence microscope (IX81, Olympus, Japan) and perfused with MEM (composition see above) supplemented with 10 mM HEPES with a flow rate of 10 μl min^−1 using a syringe pump (Harvard Apparatus, USA). The automated and motorized microscope stage was equipped with a holder for three microreactors, allowing for performing three experiments simultaneously.\n(§2) Chemical compound injection. […] Succinate as the substrate for complex II was used as an electron donor for the putatively toxicologically affected complex I in the mitochondrial electron transfer system (ETS), whereas TMPD was used to donate electrons to cytochrome c in order to test for a putative toxicological effect on complex III in the ETS. Ascorbate was used to maintain TMPD in a reduced state. The cytotoxic effects were evaluated by real-time monitoring of the change in oxygen consumption and for subsequent confirmation of the toxicological endpoints also by specific conventional staining assays (see below).\n(§3) Oxygen measurement. Real-time oxygen measurements were performed optically by means of phosphorescence quenching. Biocompatible polystyrene microbeads with a diameter of 50 μm equipped with a ruthenium-phenanthroline-based phosphorescence dye (CPOx-50-RuP, Colibri Photonics, Potsdam, Germany) were used as microprobes and were coimmobilized with the cells (FIG. 1D) in the collagen matrix during reactor seeding (described above). The electronic measurement system (OPAL, Colibri Photonics, Germany) comprises a control module, an LED as the excitation source and a detector unit (FIG. 1A)."}, "[2]": {"tested_on": "HepG2/C3A cells", "assay": "HCS LipidTOX staining for steatosis and phospholipidosis", "type": "cell-based, human", "settings": "24 hr exposure to amiodarone (200 pM as printed elsewhere in the source)", "description": "Steatosis and phospholipidosis were evaluated using the HCS LipidTOX™ system (Life Technologies, USA) according to manufacturer directions. Briefly, cells were incubated with green neutral lipid and red phospholipidosis dyes and counterstained with 1 μg/mL Hoechst 33342 for 30 min, and washed with PBS. LipidTOX green and red staining intensity were normalized to number of Hoechst-labeled nuclei."}, "[3]": {"tested_on": "HepG2/C3A cells", "assay": "Electrochemical glucose and lactate sensing at the bioreactor outflow", "type": "cell-based, human", "settings": "50 μM; for lactate over glucose ratio reached after exposure: before exposure 1.3 (rotenone), 1.2 (Troglitazone)", "description": "Cells respond to mitochondrial dysfunction by adapting their metabolic response to circumvent oxidative phosphorylation. To track this response electrochemical sensors for glucose and lactate were attached to bioreactor outflow in a PMMA housing with 16 μl dead volume (FIG. 5 A-C). Samples were collected sequentially using a computer controlled microfluidic switchboard (FIG. 5D). Micromechanical valves (FIG. 5E) introduced a sequence of (1) washing buffer, (2) air bubble interface, and (3) a bioreactor sample every hour. Proof of principle was shown with 50 μM rotenone, a direct mitochondrial C1 inhibitor, causing an 80% loss in respiration (FIG. 5F). […] Importantly, the system is sensitive enough to detect minute signals and off target effects. […] Lactate over glucose ratio increases slightly from 1.2 to 1.8, showing a shift toward glycolysis (FIG. 5I)."}, "[4]": {"assay": "in vitro", "settings": "human", "description": "as §1, §2, §3"}, "[5]": {"tested_on": "HeLa cells", "assay": "Real-time oxygen uptake of HeLa cells in the bioreactor", "type": "cell-based, human", "settings": "for effect of ascorbate and TMPD on the loss of oxygen uptake: 10 μM, preincubation with 2 mM ascorbate and 0.5 mM TMPD", "text": "Chemical compound injection.\nOxygen measurement. […] Thus, the camera port was kept available for imaging."}, "[6]": {"tested_on": "HepG2/C3A spheroids", "type": "cell-based, human", "description": "Quantitative Real Time Polymerase Chain Reaction (qRT-PCR). RNA was isolated and purified utilizing Macherey-Nagel NucleoSpin RNA II kit according to manufacturer instructions. RNA concentration and purity was determined using NanoDrop ND-1000 spectrophotometer (Thermo Fisher Scientific, USA). cDNA was synthesized from 1 μg RNA sample using qScript cDNA SuperMix (Quanta BioSciences, USA) according to the manufacturer protocol. Gene expression analysis was carried out utilizing KAPA SYBR FAST Universal 2X qPCR Master Mix (Kapa Biosystems, Boston, USA) on BioRad CFX96 Real-Time System (New South Wales, Australia), according to the manufacturer protocol. Gene transcription was evaluated using the ΔΔCt method normalized to 60S ribosomal protein L32 (RPL32) or ubiquitin C (UBC)."}, "[7]": {"settings": "HeLa cells, 12.5 mM acetaminophen"}},
  "note": "Several values for one entry are separate records, joined by “and”; a condition that tells them apart may be missing. Equal values may be shown once. Entries after “also recorded” stand apart in the source; their conditions may differ.",
  "data": [
    {"compound": "CCCCc1oc2ccccc2c1C(=O)c1cc(I)c(OCCN(CC)CC)c(I)c1", "note": "[amiodarone]", "values": [
      {"measurement": "time to onset of mitochondrial (respiratory) damage", "setting": "[1]; 200 µM", "value": 15, "unit": "h"},
      {"measurement": "time to onset of mitochondrial (respiratory) damage", "setting": "[1]; 500 µM", "value": 6, "unit": "h"},
      {"measurement": "time to onset of mitochondrial (respiratory) damage", "setting": "[1]; 1000 µM", "value": 2, "unit": "h"},
      {"measurement": "increase in intracellular lipids (steatosis)", "setting": "[2]", "value": "2.1 fold and 2 fold and > 2 fold"},
      {"measurement": "increase in phospholipidosis", "setting": "[2]", "value": "2.4 fold and 2.5 fold and > 2 fold"}
    ]},
    {"compound": "Cc1c(C)c2c(c(C)c1O)CCC(C)(COc1ccc(CC3SC(=O)NC3=O)cc1)O2", "note": "(centres unmarked) [Troglitazone]", "values": [
      {"measurement": "lactate over glucose ratio reached after exposure", "setting": "[3]", "value": 1.8},
      {"measurement": "CC50", "setting": "[4]", "value": 300, "unit": "µM"}
    ]},
    {"compound": "C=C(C)[C@H]1Cc2c(ccc3c2O[C@@H]2COc4cc(OC)c(OC)cc4[C@@H]2C3=O)O1", "note": "[rotenone]", "values": [
      {"measurement": "glucose uptake after 6 hours", "setting": "[3]; after 6 hours, shift to glutaminolysis", "value": "loss of glucose uptake"},
      {"measurement": "lactate over glucose ratio reached after exposure", "setting": "[3]", "value": 2.5},
      {"measurement": "loss in respiration", "setting": "[1]; 50 μM", "value": 80, "unit": "%"}
    ]},
    {"compound": "Antimycin A", "values": [
      {"measurement": "effect of ascorbate and TMPD on the loss of oxygen uptake", "setting": "[5]; HeLa", "value": "abrogated"},
      {"measurement": "effect of ascorbate and TMPD on the loss of oxygen uptake", "setting": "[5]; HeLa, listed as antimycin A", "value": "abrogated the toxic response"}
    ]},
    {"compound": "CC(=O)Nc1ccc(O)cc1", "note": "[acetaminophen]", "values": [
      {"measurement": "% of normal respiration", "setting": "[1]; 8 mM acetaminophen", "value": 70, "unit": "%"},
      {"measurement": "% of normal respiration", "setting": "[1]; 12.5 mM acetaminophen", "value": 55, "unit": "%"},
      {"measurement": "% of normal respiration", "setting": "[1]; 16 mM acetaminophen", "value": 25, "unit": "%"},
      {"measurement": "mitochondrial respiration immediately after exposure", "setting": "[5]; [7]", "value": "identical rapid loss of mitochondrial respiration; also recorded: identical immediate loss of mitochondrial respiration"},
      {"measurement": "second dose-independent phase of toxicity", "setting": "[5]; [7]", "value": "failed to display the second dose-independent phase of toxicity; also recorded: absent in HeLa cells"},
      {"measurement": "time at which the rapid loss of respiration ends", "setting": "[5]; [7]", "value": 60, "unit": "min"},
      {"measurement": "effect of ascorbate and TMPD on the toxic response", "setting": "[5]; HeLa, 12.5 mM acetaminophen, 2 mM ascorbate and 0.5 mM TMPD", "value": "eliminated the toxicity; also recorded: abrogated the toxic response"},
      {"measurement": "effect of succinate on the toxic response", "setting": "[5]; HeLa, 12.5 mM acetaminophen, preincubation with 20 mM succinate", "value": "no effect on the toxicity; also recorded: did not affect HeLa response"}
    ]},
    {"compound": "C[S+](C)[O-]", "note": "[DMSO]", "values": [
      {"measurement": "cell viability", "setting": "[6]", "value": "little affect on cell viability"},
      {"measurement": "increase in PXR expression", "setting": "[6]", "value": 8, "unit": "fold"},
      {"measurement": "increase in MRP3 expression", "setting": "[6]; 1%, 28 days", "value": 10, "unit": "fold"}
    ]}
  ]
}
